SMILES strings stand for the structures. Where two headings read alike, the source gives them in different places.

Test [1] has as its target T1, Human cytomegalovirus DNA polymerase (Human cytomegalovirus, UniProt P08546).
T1 construct: made in house; host or cells: SF21 insect cells (baculovirus vector)
As to the kind of experiment: HCMV polymerase assay (AlphaLISA). As to conditions: HCMV DNA polymerase 0.2 nM, 60 minutes at 37° C.; read-out: CMV (IC50). The test is classed as biochemical. As to the method: Human cytomegalovirus and varicella zoster virus DNA polymerases were expressed via baculovirus vector in SF21 cells and purified. Heterodimeric nucleic acid substrate used in the herpesvirus polymerase reactions was generated by annealing a 59-mer template to a 17-mer digoxigenin-labeled primer. Polymerase (HCMV final concentration of 0.2 nM; VZV final concentration of 0.4 nM) was combined with an inhibitor compound or DMSO in assay buffer (10 mM HEPES, pH 7.5, 25 mM KCl, 25 mM NaCl, 5 mM MgCl2, 5% glycerol, 0.67 mg/ml bovine serum albuminutes, and 1 mM tris(2-carboxyethyl)phosphine), and this mixture was pre-incubated for 30 minutes at room temperature in 384-well microtiter plates. The polymerization reaction was initiated by the addition of template/primer substrate (final concentration: 1.6 nM), and dNTPs (final concentration: 24 nM dCTP, 24 nMdGTP, 16 nM dATP, 16 nM dTTP, and 0.8 nM biotin-dUTP). After 60 minutes incubation at 37° C., reactions were terminated with quench buffer (25 mM HEPES pH 7.5, 100 mM NaCl, 0.25% Tween-20, 12 mM EDTA, and 1 mg/ml bovine serum albumin). Incorporation of biotinylated UTP was detected with 2.5-ug/ml anti-DIG AlphaLISA acceptor beads and 5-10 ug/ml streptavidin AlphaLISA donor beads (Perkin Elmer). Compound effects were normalized to the window defined by the controls (DMSO only and pre-quenched wells) and were fit using a 4-parameter algorithm to report an IC50.

Test [2] relates to HCMV Strain AD169. Briefly: Viral qPCR assay, HCMV in MRC-5 cells. The test is classed as cell-based, Human cytomegalovirus. As to conditions: read-out: CMV MRC5 Cell (EC50). As to the method: (§1) MRCS cells, Vero cells, and MeWo cells were obtained from ATCC and were maintained at 37° C./5% CO2/90% relative humidity in Minimal Essential Medium with 10% fetal bovine serum, […] L-glutamine, 100 units/ml penicillin and 100 ug/ml streptomycin. Assay plates were prepared by dispensing compounds dissolved in DMSO into wells of 384 well collagen-coated plates using an ECHO acoustic dispenser. Each compound was tested in a 10-point, serial 3-fold dilution. Controls included uninfected cells and infected cells treated only with DMSO. Assays were initiated by mixing selected cells, in suspension, with virus, and dispensing 50 μl/well infected cells to pre-plated compounds. Plates were incubated at 37° C./5% CO2/90% relative humidity for ˜72 hrs to permit genomic replication, and infected cells were lysed by the addition of an equal volume of lysis buffer (10 mM Tris-HCl, pH8, 50 mM KCl, 2 mM MgCl2, 0.45% NP-40, 0.45% Tween-20, and 100 μg/ml proteinase K). An aliquot of the lysate was transferred to a 384-well PCR plate and incubated at 56° C. for 1 hour and then at 95° C. for 10 min. Levels of a viral gene and of the cellular control, PPIA (Thermo Fisher Assay ID=Hs04194521_s1), were measured in separate 10 μL qPCR assays using TaqMan® Gene Expression Master Mix (Applied Biosystems), and an 7900HT Fast Real-Time PCR System with 384-Well Block Module. 7-point, serial 10-fold dilutions of a plasmid standard were run on each plate to generate a standard curve, and genome copies numbers were calculated by plotting experimental Ct onto linear regression of the standard curve. Viral genome copy numbers were normalized by cellular control copy number, and compound effects were normalized to the window defined by the controls. Calculated % effects were fit using a 4-parameter algorithm, and EC50 was reported.
as §1, with “gene” for “gene and of the cellular control, PPIA (Thermo Fisher Assay ID=Hs04194521_s1),”, “in” for “in separate”, “Compound effects on viral” for “Viral”, “number” for “numbers were normalized by cellular control copy number, and compound effects”
HCMV: Strain AD169 Street was assayed in MRC-5 cells and was used at 0.05-0.1 pfu/cell. The assays were performed in either growth media or in the same media with 50% fetal bovine serum. Primer-probe set was Thermo Fisher Assay ID=AIFATFK.
For orientation: In qPCR the cycle at which signal appears reflects the starting amount.

The mark [3] stands for this setting: Human betaherpesvirus 5, AD169, MRC5, 72 h.

T1 sequence (P08546 whole entry): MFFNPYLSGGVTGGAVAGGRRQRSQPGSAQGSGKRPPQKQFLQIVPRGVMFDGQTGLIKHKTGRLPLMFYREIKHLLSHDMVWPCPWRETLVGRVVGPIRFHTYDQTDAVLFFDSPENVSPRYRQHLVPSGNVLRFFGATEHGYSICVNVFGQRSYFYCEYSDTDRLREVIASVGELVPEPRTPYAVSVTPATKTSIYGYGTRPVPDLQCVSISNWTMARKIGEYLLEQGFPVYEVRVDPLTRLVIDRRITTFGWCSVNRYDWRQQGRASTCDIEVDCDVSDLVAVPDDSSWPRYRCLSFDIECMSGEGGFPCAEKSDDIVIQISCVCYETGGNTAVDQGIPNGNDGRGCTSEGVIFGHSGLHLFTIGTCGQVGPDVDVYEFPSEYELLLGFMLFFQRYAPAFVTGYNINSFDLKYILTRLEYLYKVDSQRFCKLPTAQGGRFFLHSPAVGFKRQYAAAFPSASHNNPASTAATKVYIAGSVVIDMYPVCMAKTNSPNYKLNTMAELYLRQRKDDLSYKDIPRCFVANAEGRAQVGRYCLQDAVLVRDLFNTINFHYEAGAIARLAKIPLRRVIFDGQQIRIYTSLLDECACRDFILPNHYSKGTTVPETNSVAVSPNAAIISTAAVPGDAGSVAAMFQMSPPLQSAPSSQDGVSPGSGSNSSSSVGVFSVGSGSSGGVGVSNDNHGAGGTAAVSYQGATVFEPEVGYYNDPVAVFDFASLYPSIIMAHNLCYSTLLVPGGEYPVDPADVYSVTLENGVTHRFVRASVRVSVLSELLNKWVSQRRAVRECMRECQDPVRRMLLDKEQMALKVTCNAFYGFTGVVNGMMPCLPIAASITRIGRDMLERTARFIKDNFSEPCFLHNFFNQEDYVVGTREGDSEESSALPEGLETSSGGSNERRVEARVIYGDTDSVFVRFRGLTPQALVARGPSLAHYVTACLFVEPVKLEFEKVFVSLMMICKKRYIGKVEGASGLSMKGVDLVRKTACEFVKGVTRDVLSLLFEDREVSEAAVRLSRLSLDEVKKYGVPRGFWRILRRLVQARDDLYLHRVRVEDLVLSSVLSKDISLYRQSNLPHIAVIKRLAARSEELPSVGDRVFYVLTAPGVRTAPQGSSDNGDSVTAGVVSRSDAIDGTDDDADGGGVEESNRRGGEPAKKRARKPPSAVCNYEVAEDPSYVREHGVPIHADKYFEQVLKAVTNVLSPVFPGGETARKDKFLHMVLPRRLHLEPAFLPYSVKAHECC

One may read the IC50 as the concentration needed to halve the response being measured. One may read the EC50 as the concentration giving half of the maximal effect. As to `CC(C)[C@H]1c2c(c(C(=O)NCc3ccc(Cl)cc3)nn2C)CN1C[C@H]1CCC(=O)N1` [Compound 113], the IC50 in test [1] was determined as 188 nM. Moreover, in test [2] (MRC5 cells, ~72 hrs), the EC50 was determined as 4830 nM.
For `CCC(C1CCC(=O)N1)N1Cc2c(C(=O)NCc3ccc(Cl)cc3)nn(C)c2C1` (stereo not shown) [Compound 92], in test [1], the IC50 stood at 1180 nM. In addition, the EC50 in test [2] (MRC5 cells, ~72 hrs) came out at 65900 nM.
Regarding `O=C1CC[C@H](CN2Cc3c(C(=O)NCc4ccc(Cl)cc4)nn(-c4nc(-c5ccccc5)cs4)c3C2)N1` [Compound 15], the IC50 in test [1] came to 31 nM. For the same molecule, the EC50 in test [2] (setting [3]) was found to be 1100 nM.
Consider `CC(C)[C@H]1c2c(c(C(=O)NCc3ccc(Cl)cc3)nn2C)CN1C(C)C1CCC(=O)N1` (single isomer, unassigned) [Compound 115], for which the IC50 in test [1] was found to be 566 nM. Also, the EC50 in test [2] (setting [3]) is 4240 nM.
Consider `O=C(NCc1ccc(Cl)cc1)c1nn(CCNC(=O)C2CCC2)c2c1CN(Cc1c(F)cncc1F)C2` [Compound 64], for which the IC50 in test [1] worked out at 64 nM.
For the molecule `O=C1CC[C@@H](CN2Cc3c(C(=O)NCc4ccc(Cl)cc4)nn(C4CCOCC4)c3C2)N1` [Compound 53], the IC50 in test [1] amounted to 124 nM. In addition, the EC50 in test [2] (setting [3]) is 2090 nM.
Regarding `CCC1c2c(c(C(=O)NCc3ccc(Cl)cc3)nn2C)CN1CC1CCC(=O)N1` (single isomer, unassigned) [Compound 104], in test [1], the IC50 is 1810 nM. For the same molecule, in test [2] (MRC5 cells, ~72 hrs), the EC50 came to 38700 nM.
Take `Cn1nc(C(=O)NCc2ccc(Cl)cc2)c2c1CN(C[C@H]1CC(F)(F)C(=O)N1)C2` [Compound 81]: in test [1], the IC50 turned out to be 557 nM. The EC50 in test [2] (setting [3]) is 1280 nM.
With `CC([C@@H]1CCC(=O)N1)N1Cc2c(C(=O)NCc3ccc(Cl)cc3)nn(C(F)F)c2C1` (stereo partly shown) [Compound 72], the IC50 in test [1] came to 976 nM.
On to `Cn1nc(C(=O)NCc2ccc(Cl)cc2)c2c1CN(CC1CCC(=O)N1)C2` (stereo not shown) [Compound 88], for which the half-maximal inhibitory concentration (IC50) in test [1] came out at 13300 nM. For the same molecule, the EC50 in test [2] (MRC5 cells, ~72 hrs) is 33000 nM.
As for `Cn1nccc1-n1nc(C(=O)NCc2ccc(Cl)cc2)c2c1CN(C[C@H]1CCC(=O)N1)C2` [Compound 24], the concentration for half-maximal inhibition (IC50) in test [1] worked out at 148 nM. Further, in test [2] (setting [3]), the EC50 was 997 nM.
Turning to `CN(CCn1nc(C(=O)NCc2ccc(Cl)cc2)c2c1CN(Cc1ccncc1Cl)C2)C(=O)C1CCC1` [Compound 65], the IC50 in test [1] was found to be 64.5 nM.
Still for that read-out and setting: as for `O=C(NCc1ccc(Cl)cc1)c1nn(CCNC(=O)C2CCC2)c2c1CN(Cc1ccncc1Cl)C2` [Compound 70], the figure is 1710 nM.
On to `O=C1CC[C@H](CN2Cc3c(C(=O)NCc4ccc(Cl)cc4)nn([C@H]4CCCOC4)c3C2)N1` [Compound 51], for which the IC50 in test [1] worked out at 129 nM. In addition, the EC50 in test [2] (setting [3]) stood at 1800 nM.
For the molecule `CC(C1CC(F)C(=O)N1)N1Cc2c(C(=O)NCc3ccc(Cl)cc3)nn(C)c2C1` (stereo not shown) [Compound 74], in test [1], the IC50 worked out at 815 nM. For the same molecule, the EC50 in test [2] (MRC5 cells, ~72 hrs) stood at 28100 nM.
In the same order, the values of `CC(C)[C@H]1c2c(c(C(=O)NCc3ccc(Cl)cc3)nn2C)CN1C(C)C1CCC(=O)N1` (single isomer, unassigned) [Compound 116] are 10900 nM and 99000 nM.
`CC(C)C(O)Cn1nc(C(=O)NCc2ccc(Cl)cc2)c2c1CN(C[C@H]1CCC(=O)N1)C2` (stereo partly shown) [Compound 56]: in test [1], the IC50 was found to be 129 nM. The EC50 in test [2] (setting [3]) stood at 1800 nM.
For `CCC(C1CCC(=O)N1)N1Cc2c(C(=O)NCc3ccc(Cl)cc3)nn(C)c2C1` (stereo not shown) [Compound 91], the IC50 in test [1] was determined as 8610 nM. In test [2] (MRC5 cells, ~72 hrs), the EC50 stood at 99000 nM.
Take `O=C1CC[C@@H](CN2Cc3c(C(=O)NCc4ccc(Cl)cc4)nn(C4CCC(F)(F)C4)c3C2)N1` (single isomer, unassigned) [Compound 54]: the IC50 in test [1] turned out to be 146 nM. Also, the EC50 in test [2] (MRC5 cells, ~72 hrs) came out at 1580 nM.
In the same order, the values of `CC(C)[C@H]1c2c(c(C(=O)NCc3ccc(Cl)cc3)nn2C)CN1C(C)C1CCC(=O)N1` (single isomer, unassigned) [Compound 117] are 680 nM and 4640 nM.
For the molecule `CC(C)[C@@H]1c2c(c(C(=O)NCc3ccc(Cl)cc3)nn2C)CN1C[C@@H]1CCC(=O)N1` [Compound 114], in test [1], the IC50 stood at 77.6 nM. Moreover, the EC50 in test [2] (setting [3]) came out at 1100 nM.
Consider `CC(C1CC(F)(F)C(=O)N1)N1Cc2c(C(=O)NCc3ccc(Cl)cc3)nn(C)c2C1` (stereo not shown) [Compound 84], for which, in test [1], the IC50 was found to be 13300 nM. Also, the EC50 in test [2] (MRC5 cells, ~72 hrs) amounted to 40000 nM.
Regarding `O=C1CC[C@H](CN2Cc3c(C(=O)NCc4ccc(Cl)cc4)nn(-c4ncc[nH]4)c3C2)N1` [Compound 14], the IC50 in test [1] was 25.8 nM. Moreover, in test [2] (setting [3]), the EC50 stood at 1030 nM.
Taken in the same sequence, the figures for `CC(C)(C)c1csc(-n2nc(C(=O)NCc3ccc(Cl)cc3)c3c2CN(C[C@H]2CCC(=O)N2)C3)n1` [Compound 21] were 157 nM and 2670 nM.
Regarding `CC(=O)OCC1c2c(c(C(=O)NCc3ccc(Cl)cc3)nn2C)CN1C[C@H]1CCC(=O)N1` (single isomer, unassigned) [Compound 119], the IC50 in test [1] is 7850 nM. The EC50 in test [2] (MRC5 cells, ~72 hrs) stood at 99000 nM.
Turning to `O=C1CC[C@H](CN2Cc3c(C(=O)NCc4ccc(Cl)cc4)nn(C4CCOCC4)c3C2)N1` [Compound 50], the IC50 in test [1] is 125 nM. In addition, the EC50 in test [2] (setting [3]) was 1480 nM.
`CCC(C1CCC(=O)N1)N1Cc2c(C(=O)NCc3ccc(Cl)cc3)nn(C)c2C1` (single isomer, unassigned) [Compound 89]: in test [1], the IC50 amounted to 800 nM. Further, the 50% effective concentration (EC50) in test [2] (setting [3]) came out at 7640 nM.
Taken in the same sequence, the figures for `O=C1CC[C@@H](CN2Cc3c(C(=O)NCc4ccc(Cl)cc4)nn([C@H]4CCCOC4)c3C2)N1` [Compound 52] were 150 nM and 885 nM.
For the molecule `O=C1CC[C@H](CN2Cc3c(C(=O)NCc4ccc(Cl)cc4)nn(-c4ncc(O)cn4)c3C2)N1` [Compound 17], the IC50 in test [1] was determined as 36.1 nM. Further, the EC50 in test [2] (setting [3]) is 51400 nM.
`Cc1nnc2n1C(CN1Cc3c(C(=O)NCc4ccc(Cl)cc4)nn(C)c3C1)CC2` (stereo not shown) [Compound 97]: the IC50 in test [1] stood at 174 nM.
As for `O=C(NCc1ccc(Cl)cc1)c1nn(C(F)F)c2c1CN(CC13CC(C1)C(=O)N3)C2` [Compound 98], the IC50 in test [1] was 534 nM. In addition, the EC50 in test [2] (setting [3]) was determined as 1400 nM.
Consider `CC([C@@H]1CCC(=O)N1)N1Cc2c(C(=O)NCc3ccc(Cl)cc3)nn(-c3nccs3)c2C1` (single isomer, unassigned) [Compound 6], for which, in test [1], the IC50 was determined as 958 nM. The EC50 in test [2] (MRC5 cells, ~72 hrs) was determined as 5870 nM.
Regarding `Cn1nc(C(=O)NCc2ccc(C#N)c(F)c2)c2c1CN(C[C@H]1CCC(=O)N1)C2` [Compound 62], the IC50 in test [1] turned out to be 62.5 nM.
The same measure, in the same setting: as for `O=C(NCc1ccc(Cl)cc1)c1nn(CCNC(=O)C2CCC2)c2c1CN(Cc1ccnc(F)c1)C2` [Compound 67], the figure is 119 nM.

These data come from patent US20240059693A1, “FUSED BICYCLIC PYRAZOLE DERIVATIVES AND METHODS OF USE THEREOF FOR THE TREATMENT OF HERPESVIRUSES” (Merck Sharp & Dohme LLC, priority 2020, published 2024).
